Assay results as given in patent US20220324913A1, “ANTIGENIC NEURON SPECIFIC ENOLASE PEPTIDES FOR DIAGNOSING AND TREATING AUTISM” (THE REGENTS OF THE UNIVERSITY OF CALIFORNIA, priority 2019, published 2022).
Entries after “also recorded” stand apart in the source; their conditions may differ.

Columns and labels:
Assay type in all cases: binding, human
[1] = system: maternal autoantibodies (plasma from mothers of ASD and TD children); assay: NSE 15-mer peptide microarray epitope mapping probed with maternal plasma; settings: for Specific binding: group whose antibodies recognize the sequence; for ASD + N = 19 (number of positive samples): mothers of ASD children; for ASD + N = 19 (number of positive samples) / TD + N = 10 (number of positive samples): positive if FI >200; for TD + N = 10 (number of positive samples): mothers of TD children
[2] = system: maternal autoantibodies (plasma from mothers of ASD and TD children); assay: ELISA of maternal plasma reactivity to recombinant NSE; settings: for Reactivity observed, number of mothers: plasma 1:500
Description: Once NSE was identified as a viable antigenic candidate by WB, we evaluated a larger sample set for NSE reactivity using an ELISA method. We tested plasma from 418 mothers enrolled in the CHARGE study with at least one child with ASD (n=232) or control samples from mothers of typically developing children (TD; n=186). Microtiter plates were coated with 100 μl of NSE (Novus Biologicals, Littleton, Colo.) at 2 μg/ml in carbonate coating buffer pH 9.6, incubated overnight at 4° C., washed four times with PBST 0.05%, and blocked with 2% Super Block (Thermo Scientific, Rockford, Ill.) for 1 hour at room temperature (RT). The plasma samples were diluted 1:500 and run in duplicate. Following dilution, 100 μl of diluted sample was added to each well, incubated for 1.5 hours, washed 4×, then incubated with 1:10,000 goat anti-human IgG-HRP IgG (Kirkegaard & Perry Laboratories, Inc., Gaithersburg, Mass.) for 1 hour. The plates were then washed and detection was performed by adding 100 μl of BD optEIA liquid substrate for ELISA (BD Biosciences, San Jose, Calif.). After 4 minutes, the reaction was stopped with 50 μl of 2N HCl. The absorbance was measured at 490-450 nm using an iMark Microplate Absorbance Reader (Biorad, Hercules, Calif., USA).
For the ELISA assay, positive cutoff values for reactivity to NSE were determined using a ROC curve. The ROC curve was created by plotting the true positive rate against the false positive rate at various threshold settings. We therefore created our curve using seven positive samples (labeled as +) from mothers that have a child with ASD and were positive by WB (true positive samples) along with the test samples. By using the positive samples as the reference event, the cutoff has greater specificity (less false positives) although sacrificing some sensitivity (limit of detection). The ROC plots sensitivity versus 1−Specificity for each value creating an Area Under the Curve (AUC) that is a representation of the accuracy of the test. Youden's index was used to calculate the cutoff.
NSE was identified by mass spectrometry as a potential target of the maternal autoantibodies and, based on its critical role in neurodevelopment, we chose to further evaluate NSE as a potential MAR ASD biomarker. Recombinant NSE was used to verify maternal autoantibody reactivity first by WB followed by ELISA. […] Therefore, we utilized an approach similar to that used for the seven previously-described MAR autoantigens to probe the samples for differential epitope recognition between ASD and TD groups.

[3] = system: maternal autoantibodies; assay: Western blot of recombinant proteins probed with maternal plasma; settings: compared with NNE, ALDOC and CKB; plasma 1:800
Description: To test autoantibody reactivity to FMB Fraction #12 that contained proteins between 37-45 kDa, the fraction was probed with maternal plasma samples as described previously (FIG. 1D). In summary, 200 μg of protein were denatured by heating at 100° C. for 10 min in SDS buffer and separated on a 12% SDS-PAGE gel at 200V for 1 hour. Proteins were transferred to a 0.2 μm nitrocellulose membrane overnight (10V for 16 hours) at 4° C. To confirm the transfer, the membrane was stained with Ponceau dye and cut into 3 mm strips that were labeled and blocked with 1% casein buffer. Plasma samples were then diluted (1:400), added to the strips, incubated for 1.5 hours at RT followed by five washes, and incubated with 1:20,000 goat anti-human IgG-HRP for 30 minutes. After five washes, detection was performed by adding 800 μl of Super Signal substrate and strips were placed on a glass plate to be imaged using the FluoroChem 8900 imager. Images were scored as 0 if negative and 1 if positive.
The top 4 commercially available antigens identified by mass spectrometry with a 100 C.I. were selected for further evaluation. To evaluate antibody reactivity against our top hits including NSE, NNE, ALDOC, and CKB, 2 μg protein of recombinant protein (Novus Biologicals, Littleton, Colo.) were probed with diluted maternal plasma (1:800) by WB as described previously. […]

| Substance | Specific binding ([1]; ELISA positive samples) | ASD + N = 19 (number of positive samples) ([1]; ELISA positive samples) | TD + N = 10 (number of positive samples) ([1]; ELISA positive samples) | further results |
| --- | --- | --- | --- | --- |
| 408 (SERLAKYNQLMRIEE; listed as Homo sapiens) [compound 408] | ASD | 6 | 0 |  |
| 409 (ERLAKYNQLMRIEEE; listed as Homo sapiens) [compound 409] | ASD | 7 | 0 |  |
| 410 (RLAKYNQLMRIEEEL; listed as Homo sapiens) [compound 410] | ASD | 5 | 0 |  |
| 411 (LAKYNQLMRIEEELG; listed as Homo sapiens) [compound 411] | ASD | 3 | 0 |  |
| 412 (AKYNQLMRIEEELGD; listed as Homo sapiens) [compound 412] | ASD | 3 | 0 |  |
| 413 (KYNQLMRIEEELGDE; listed as Homo sapiens) [compound 413] | ASD | 3 | 0 |  |
| 416 (QLMRIEEELGDEARF; listed as Homo sapiens) [compound 416] | ASD | 3 | 0 |  |
| DYPVVSIEDPFDQDD (listed as Homo sapiens) [ES 293] |  |  |  | Specific binding ([1]; ELISA positive samples, listed as SEQ ID NO:7): recognized by plasma from both sample groups; also recorded: recognized by antibodies in both experimental groups |
| NSE: recombinant neuron specific enolase protein (Novus Biologicals), target autoantigen of maternal autoantibodies |  |  |  | Reactivity observed, percent of mothers ([2]; mothers that had a child with ASD): 6.2%; Reactivity observed, percent of mothers ([2]; mothers that have a typically developing child (TD)): 5%; Reactivity observed, number of mothers ([2]; of 186 mothers that have a typically developing child): 21; Reactivity observed, number of mothers ([2]; of the 232 mothers that had a child with ASD): 26; Maternal autoantibody reactivity against recombinant protein [3]: greatest specificity |
| PVVSIEDPFDQDDWA (listed as Homo sapiens) [ES 295] |  |  |  | Specific binding ([1]; ELISA positive samples, listed as SEQ ID NO:9): recognized by plasma from both sample groups; also recorded: recognized by antibodies in both experimental groups |
| QDFVRDYPVVSIEDP (listed as Homo sapiens) [ES 288] |  |  |  | Specific binding ([1]; ELISA negative samples): ASD-specific |
| VSIEDPFDQDDWAAW (listed as Homo sapiens) [ES 297] |  |  |  | Specific binding ([1]; ELISA positive samples, listed as SEQ ID NO:11): recognized by plasma from both sample groups; also recorded: recognized by antibodies in both experimental groups |
| VVSIEDPFDQDDWAA (listed as Homo sapiens) [ES 296] |  |  |  | Specific binding ([1]; ELISA positive samples, listed as SEQ ID NO:10): recognized by plasma from both sample groups; also recorded: recognized by antibodies in both experimental groups |
| YPVVSIEDPFDQDDW (listed as Homo sapiens) [ES 294] |  |  |  | Specific binding ([1]; ELISA positive samples, listed as SEQ ID NO:8): recognized by plasma from both sample groups; also recorded: recognized by antibodies in both experimental groups |
